Reference: the CheMixHub viscosity set

Test: xn = mol fraction of the nth substance listed
Conditions: 101 kPa

CC(C)c1ccccc1 + CC(C)(C)O
viscosity [mPa·s]
Conditions	x2 = 0.0995	x2 = 0.2007	x2 = 0.3001	x2 = 0.3998	x2 = 0.5009	x2 = 0.6007	x2 = 0.7002	x2 = 0.8005	x2 = 0.9002
303.15 K	0.6893	0.7128	0.7481	0.7954	0.8754	0.9692	1.129	1.415	1.874
308.15 K	0.6458	0.6665	0.6941	0.7344	0.8007	0.8782	1.007	1.232	1.578
313.15 K	0.6059	0.6215	0.6451	0.6782	0.7352	0.798	0.9019	1.08	1.343
318.15 K	0.5703	0.5814	0.6002	0.6279	0.6742	0.7269	0.8117	0.9531	1.153
323.15 K	0.537	0.5452	0.5604	0.5835	0.6218	0.6649	0.7349	0.8485	1.001

CCCN + CC(C)(C)O
298.15 K
Conditions	viscosity [mPa·s]
x2 = 0.0967	0.512
x2 = 0.2039	0.727
x2 = 0.3012	0.969
x2 = 0.4	1.263
x2 = 0.4992	1.614
x2 = 0.5874	1.975
x2 = 0.6813	2.415
x2 = 0.7999	3.09
x2 = 0.9183	3.806

O=C(O)c1ccco1 + O=C1CCCCCN1
x2 = 0.5
Conditions	viscosity [mPa·s]
303.1 K	179.6
313.2 K	79.63
323.1 K	44.44

CCCN + CCC(C)(C)O
Conditions	viscosity [mPa·s]
308.15 K, x2 = 0.9498	2.305

Oc1ccccc1Cl + CCC(C)=O
298.15 K
Conditions	viscosity [mPa·s]
x1 = 0.1005	0.517
x1 = 0.1961	0.7
x1 = 0.3003	0.913
x1 = 0.3994	1.322
x1 = 0.501	1.744
x1 = 0.6001	2.277
x1 = 0.6991	2.736
x1 = 0.8006	3.091
x1 = 0.8991	3.315

CCCN + COCCOCCOC
298.15 K
Conditions	viscosity [mPa·s]
x1 = 0.0113	0.985
x2 = 0.0044	0.359
x2 = 0.0179	0.368
x2 = 0.0461	0.385
x2 = 0.0659	0.4
x2 = 0.0913	0.417
x2 = 0.1293	0.443
x2 = 0.1685	0.472
x2 = 0.1892	0.487
x2 = 0.2354	0.518
x2 = 0.2682	0.541
x2 = 0.2727	0.544
x2 = 0.315	0.575
x2 = 0.3201	0.579
x2 = 0.3647	0.613
x2 = 0.3683	0.615
x2 = 0.4079	0.644
x2 = 0.4628	0.679
x2 = 0.5243	0.721
x2 = 0.5823	0.757
x2 = 0.6408	0.796
x2 = 0.7358	0.84
x2 = 0.79	0.873
x2 = 0.8565	0.908
x2 = 0.897	0.935
x2 = 0.9375	0.955
